Data as given in ChEMBL document CHEMBL5331124, “Degradation of Hexokinase 2 Blocks Glycolysis and Induces GSDME-Dependent Pyroptosis to Amplify Immunogenic Cell Death for Breast Cancer Therapy” (J Med Chem, 2023).
The source made the active and inactive calls. The calls are words filed in the database; no cut-off is given here.

How the values were obtained:
[1] = molecular target: Protein cereblon/Hexokinase-2 (Homo sapiens) (UniProt P52789+Q96SW2); experiment: PROTAC activity at CRBN/HK2 in human MDA-MB-231 cells assessed as […] ternary complex formation at 10 uM incubated for 24 hrs; format: cell-based
[2] = Toxicity in BALB/c mouse implanted with mouse 4T1 cells assessed as effect on hemoglobin level at 50 mg/kg, ip measured after 25 days by routine blood test; format: organism-based; conditions: in vivo, 600 h, time 25 day
4T1 [3] = experiment: Induction of pyroptosis in mouse 4T1 cells assessed as early apoptotic cells at 20 uM incubated for 36 hrs by annexin V-FITC staining based flow cytometry analysis (reference value: 4.76 %); format: functional
[4] = Toxicity in BALB/c mouse implanted with mouse 4T1 cells assessed as pathological changes in spleen at 50 mg/kg, ip measured after 25 days by Hematoxylin -eosin staining based analysis; format: organism-based; conditions: in vivo, 600 h, time 25 day
[5] = Toxicity in BALB/c nude mouse xenografted with human MDA-MB-231 cells assessed as effect on hematocrit level at 50 mg/kg, ip measured after 30 days by routine blood test; format: organism-based; conditions: in vivo, 720 h, time 30 day
[6] = molecular target: T1, Hexokinase-2 (Mus musculus) (UniProt O08528); experiment: Induction of HK2 degradation in mouse 4T1 cells at 20 uM measured for 36 hrs by Western blot analysis relative to control; format: cell-based
T1 sequence (whole entry): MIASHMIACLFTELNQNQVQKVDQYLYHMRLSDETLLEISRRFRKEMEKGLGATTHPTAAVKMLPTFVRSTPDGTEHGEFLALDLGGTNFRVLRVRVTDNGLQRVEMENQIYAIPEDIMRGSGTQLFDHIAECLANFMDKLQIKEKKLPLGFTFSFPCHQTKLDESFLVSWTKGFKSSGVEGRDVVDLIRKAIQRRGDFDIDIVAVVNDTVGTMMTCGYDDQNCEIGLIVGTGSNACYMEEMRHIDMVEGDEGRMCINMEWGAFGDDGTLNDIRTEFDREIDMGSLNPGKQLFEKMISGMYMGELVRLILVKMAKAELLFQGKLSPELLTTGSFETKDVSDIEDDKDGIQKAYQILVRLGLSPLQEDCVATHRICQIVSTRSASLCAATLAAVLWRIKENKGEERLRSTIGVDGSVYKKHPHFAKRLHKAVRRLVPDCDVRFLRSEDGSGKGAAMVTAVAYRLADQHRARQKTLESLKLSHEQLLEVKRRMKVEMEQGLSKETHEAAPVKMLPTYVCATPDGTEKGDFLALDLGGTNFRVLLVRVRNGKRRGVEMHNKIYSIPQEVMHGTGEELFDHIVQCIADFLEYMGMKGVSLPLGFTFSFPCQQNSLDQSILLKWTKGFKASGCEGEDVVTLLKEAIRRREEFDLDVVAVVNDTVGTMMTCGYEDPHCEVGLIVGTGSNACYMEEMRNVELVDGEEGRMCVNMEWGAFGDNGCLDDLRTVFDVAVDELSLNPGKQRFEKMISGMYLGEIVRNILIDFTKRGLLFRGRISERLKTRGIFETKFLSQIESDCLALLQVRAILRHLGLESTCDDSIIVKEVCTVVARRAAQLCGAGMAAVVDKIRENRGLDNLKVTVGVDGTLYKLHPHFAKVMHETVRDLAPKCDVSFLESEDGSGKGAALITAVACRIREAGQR

MDA-MB-231 = experiment: Induction of pyroptosis in human MDA-MB-231 cells assessed as increase in N-terminal GSDME level at 20 uM incubated for 36 hrs by Western blot analysis; format: functional, cell-based
[7] = Toxicity in BALB/c mouse implanted with mouse 4T1 cells assessed as effect on hematocrit level at 50 mg/kg, ip measured after 25 days in presence of cisplatin by routine blood test; format: organism-based; conditions: in vivo, 600 h, time 25 day
4T1 [8] = experiment: Induction of mitochondrial damage in mouse 4T1 cells at 20 uM measured for 36 hrs by Hoechst 33342 staining based confocal fluorescence microscopic analysis; format: functional, cell-based
[9] = Toxicity in BALB/c mouse implanted wth mouse 4T1 cells assessed as effect on body weight at 50 mg/kg, ip measured after 23 days; format: organism-based; conditions: in vivo, 552 h, time 23 day
4T1 [10] = experiment: Induction of mitochondrial damage in mouse 4T1 cells assessed as reduction in ATP level at 20 uM measured for 36 hrs; format: functional, cell-based
4T1 [11] = experiment: Induction of mitochondrial damage in mouse 4T1 cells assessed as increase in ROS generation at 20 uM measured for 36 hrs by Hoechst 33342 staining based confocal fluorescence microscopic analysis; format: functional, cell-based
HUVEC-T1 cell = experiment: Inhibition of colony formation in human HUVEC-T1 cell at 5 to 20 uM incubated for 48 hrs by giemsa staining based analysis; format: functional; conditions: dose 5-20 µM
[12] = Toxicity in BALB/c nude mouse xenografted with human MDA-MB-231 cells assessed as effect on platelet count at 50 mg/kg, ip measured after 30 days by routine blood test; format: organism-based; conditions: in vivo, 720 h, time 30 day
[13] = Toxicity in BALB/c nude mouse xenografted with human MDA-MB-231 cells assessed as effect on mean corpuscular volume at 50 mg/kg, ip measured after 30 days by routine blood test; format: organism-based; conditions: in vivo, 720 h, time 30 day

Chain of Protein cereblon/Hexokinase-2 (Homo sapiens) (P52789 whole entry, looked up): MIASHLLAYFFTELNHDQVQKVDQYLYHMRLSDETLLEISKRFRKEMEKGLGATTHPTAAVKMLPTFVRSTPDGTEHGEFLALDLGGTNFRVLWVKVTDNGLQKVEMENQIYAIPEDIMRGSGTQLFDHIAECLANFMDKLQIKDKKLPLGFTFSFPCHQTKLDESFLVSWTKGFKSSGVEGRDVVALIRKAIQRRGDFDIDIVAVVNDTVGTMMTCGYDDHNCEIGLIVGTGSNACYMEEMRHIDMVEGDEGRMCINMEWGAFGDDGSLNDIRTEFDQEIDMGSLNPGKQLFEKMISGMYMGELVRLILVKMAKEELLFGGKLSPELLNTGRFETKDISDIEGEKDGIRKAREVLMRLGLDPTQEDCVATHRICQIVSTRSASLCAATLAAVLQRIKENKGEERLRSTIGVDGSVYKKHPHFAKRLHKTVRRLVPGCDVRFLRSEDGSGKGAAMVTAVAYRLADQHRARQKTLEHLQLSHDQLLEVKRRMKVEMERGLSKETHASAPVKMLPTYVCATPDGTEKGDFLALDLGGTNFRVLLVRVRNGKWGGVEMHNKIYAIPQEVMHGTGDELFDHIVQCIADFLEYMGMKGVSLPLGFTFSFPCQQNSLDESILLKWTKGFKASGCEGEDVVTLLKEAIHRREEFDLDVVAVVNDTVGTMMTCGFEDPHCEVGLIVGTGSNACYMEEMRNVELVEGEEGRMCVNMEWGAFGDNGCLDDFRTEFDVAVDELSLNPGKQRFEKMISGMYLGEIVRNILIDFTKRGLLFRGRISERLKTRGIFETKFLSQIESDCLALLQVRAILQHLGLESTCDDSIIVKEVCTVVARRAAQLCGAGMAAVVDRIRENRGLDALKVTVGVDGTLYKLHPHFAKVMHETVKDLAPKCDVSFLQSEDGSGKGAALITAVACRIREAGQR
Chain of Protein cereblon/Hexokinase-2 (Homo sapiens) (Q96SW2 whole entry, looked up): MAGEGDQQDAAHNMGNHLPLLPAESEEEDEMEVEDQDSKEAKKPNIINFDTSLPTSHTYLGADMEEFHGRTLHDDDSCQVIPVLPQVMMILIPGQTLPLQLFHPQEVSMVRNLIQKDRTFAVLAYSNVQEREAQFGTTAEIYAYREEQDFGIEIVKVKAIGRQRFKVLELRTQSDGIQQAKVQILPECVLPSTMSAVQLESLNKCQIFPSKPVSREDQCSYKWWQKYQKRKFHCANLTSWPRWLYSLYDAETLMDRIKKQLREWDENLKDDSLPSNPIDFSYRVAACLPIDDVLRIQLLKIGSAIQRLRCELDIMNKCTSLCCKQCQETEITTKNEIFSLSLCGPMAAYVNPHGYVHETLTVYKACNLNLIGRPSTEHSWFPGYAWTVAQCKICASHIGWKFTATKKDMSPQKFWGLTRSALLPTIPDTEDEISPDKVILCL

O=C1CCC(N2C(=O)c3cccc(NCCCCNC(=O)c4nn(Cc5ccc(Cl)cc5Cl)c5ccccc45)c3C2=O)C(=O)N1 (stereo not given)
Activity [1]: Active
Activity [2]: Non-Toxic
Activity (4T1 [3]): 9.85%
Activity [4]: Non-Toxic
Activity [5]: Non-Toxic
Activity [6]: 71.1%
Activity (MDA-MB-231): Active
Activity [7]: Non-Toxic
Activity (4T1 [8]): Active
Activity [9]: Non-Toxic
Activity (4T1 [10]): Active
Activity (4T1 [11]): Active
inhibition (HUVEC-T1 cell): inactive
Activity [12]: Non-Toxic
Activity [13]: Non-Toxic
